Key:
Phytophthora infestans = test: whole plant or invertebrate; assay type: in vivo; conditions: in Solanum lycopersicum, foliar, 96 h, read-out: control of fungal infection, Phytophthora infestans
Plasmopara viticola = test: Leaf disk assay, Plasmopara viticola (downy mildew of grapevine), preventive; assay type: in vivo; conditions: foliar, 168 h, grapevine leaf disks, assessed seven days after inoculation, read-out: control of fungal infection, Plasmopara viticola
[1] = test system: Erysiphe graminis f.sp. tritici; test: Leaf disk assay, Erysiphe graminis f.sp. tritici (wheat powdery mildew), preventive; assay type: in vivo; conditions: Blumeria graminis, foliar, 96 h, wheat leaf segments, assessed four days after inoculation, read-out: control of fungal infection, Erysiphe graminis f.sp. tritici
Procedure: The compounds were tested in a leaf disk assay, with methods described below. The test compounds were dissolved in DMSO and diluted into water to 200 ppm. In the case of the test on Pythium ultimum, they were dissolved in DMSO and diluted into water to 20 […] graminis f.sp. tritici (wheat powdery mildew): Wheat leaf segments were placed on agar in a 24-well plate and sprayed with a solution of the test compound. After allowing to dry completely, for between 12 and 24 hours, the leaf disks were inoculated with a spore suspension of the fungus. After appropriate incubation the activity of a compound was assessed four days after inoculation as preventive fungicidal activity.

[2] = test system: Puccinia recondita f.sp. tritici; test: Leaf disk assay, Puccinia recondita f.sp. tritici (wheat brown rust), preventive; assay type: in vivo; conditions: foliar, 216 h, wheat leaf segments, assessed nine days after inoculation, read-out: control of fungal infection, Puccinia recondita f.sp. tritici
Septoria tritici = test: Growth inhibition in nutrient broth, Septoria tritici (leaf blotch), photometric; assay type: cell-based; conditions: Zymoseptoria tritici, PDB broth, 24 C, 72 hrs, read-out: control of fungal infection, Septoria tritici
Fusarium culmorum = test: Growth inhibition in nutrient broth, Fusarium culmorum (root rot), photometric; assay type: cell-based; conditions: 48 h, read-out: control of fungal infection, Fusarium culmorum
Procedure: The compounds were tested in a leaf disk assay, with methods described below. The test compounds were dissolved in DMSO and diluted into water to 200 ppm. In the case of the test on Pythium ultimum, they were dissolved in DMSO and diluted into water to 20 ppm.
Fusarium culmorum (root rot): Conidia of the fungus from cryogenic storage were directly mixed into nutrient broth (PDB potato dextrose broth). After placing a (DMSO) solution of the test compounds into a microtiter plate (96-well format) the nutrient broth containing the fungal spores was added. The test plates were incubated at 24 C and the inhibition of growth was determined photometrically after 48 hrs.

Pythium ultimum = test: Growth inhibition in potato dextrose broth, Pythium ultimum (damping off), photometric; assay type: cell-based; conditions: Globisporangium ultimum, 24° C., 48 hours, read-out: control of fungal infection, Pythium ultimum
Procedure: The compounds were tested in a leaf disk assay, with methods described below. The test compounds were dissolved in DMSO and diluted into water to 200 ppm. In the case of the test on Pythium ultimum, they were dissolved in DMSO and diluted into water to 20 ppm. Pythium ultimum (Damping off): Mycelial fragments of the fungus, prepared from a fresh liquid culture, were mixed into potato dextrose broth. A solution of the test compound in dimethyl sulphoxide was diluted with water to 20 ppm then placed into a 96-well microtiter plate and the nutrient broth containing the fungal spores was added. The test plate was incubated at 24° C. and the inhibition of growth was determined photometrically after 48 hours.

Septoria nodorum = test: Leaf disk assay, Septoria nodorum (wheat glume blotch), preventive; assay type: in vivo; conditions: Parastagonospora nodorum, foliar, 96 h, wheat leaf segments, assessed four days after inoculation, read-out: control of fungal infection, Septoria nodorum

COCC#Cc1cnc2ccc(OC(SC)C(=O)NC(C)(C)C)cc2c1 (stereo not drawn) [Example 42]
≥ 60%: pest or weed control at 200 ppm (Phytophthora infestans) | pest or weed control at 200 ppm (Plasmopara viticola) | pest or weed control at 200 ppm [1] | pest or weed control at 200 ppm [2] | inhibition of growth at 60 ppm (Septoria tritici) | inhibition of growth at 60 ppm (Fusarium culmorum) | inhibition of growth at 20 ppm (Pythium ultimum)

CC#Cc1cnc2ccc(OC(SC)C(=O)NC(C)(C)C)cc2c1 (stereo not drawn) [Example 54]
≥ 60%: pest or weed control at 200 ppm (Phytophthora infestans) | pest or weed control at 200 ppm (Plasmopara viticola) | pest or weed control at 200 ppm [1] | pest or weed control at 200 ppm (Septoria nodorum) | inhibition of growth at 60 ppm (Septoria tritici) | inhibition of growth at 60 ppm (Fusarium culmorum) | inhibition of growth at 20 ppm (Pythium ultimum)

C#Cc1cnc2ccc(OC(SC)C(=O)NC(C)(C)C=O)cc2c1 (stereo not drawn) [Example 61]
≥ 60%: pest or weed control at 200 ppm (Phytophthora infestans) | pest or weed control at 200 ppm (Plasmopara viticola) | pest or weed control at 200 ppm [1] | pest or weed control at 200 ppm [2] | inhibition of growth at 60 ppm (Septoria tritici) | inhibition of growth at 60 ppm (Fusarium culmorum) | inhibition of growth at 20 ppm (Pythium ultimum)

C#Cc1cnc2ccc(OC(OC)C(=O)NC(C)(C)C)cc2c1 (stereo not drawn) [Example 87]
≥ 60%: pest or weed control at 200 ppm (Phytophthora infestans) | pest or weed control at 200 ppm (Plasmopara viticola) | pest or weed control at 200 ppm [1] | pest or weed control at 200 ppm [2] | pest or weed control at 200 ppm (Septoria nodorum) | inhibition of growth at 60 ppm (Septoria tritici) | inhibition of growth at 60 ppm (Fusarium culmorum)

C#Cc1cnc2ccc(OC(SC)C(=O)NCC)cc2c1 (stereo not drawn) [Example 97]
≥ 60%: pest or weed control at 200 ppm (Phytophthora infestans) | pest or weed control at 200 ppm (Plasmopara viticola) | pest or weed control at 200 ppm [1] | pest or weed control at 200 ppm [2] | pest or weed control at 200 ppm (Septoria nodorum) | inhibition of growth at 60 ppm (Septoria tritici) | inhibition of growth at 60 ppm (Fusarium culmorum) | inhibition of growth at 20 ppm (Pythium ultimum)

C#Cc1cnc2ccc(OC(SC)C(=O)NC(C)C)cc2c1 (stereo not drawn) [Example 98]
≥ 60%: pest or weed control at 200 ppm (Phytophthora infestans) | pest or weed control at 200 ppm (Plasmopara viticola) | pest or weed control at 200 ppm [1] | pest or weed control at 200 ppm [2] | pest or weed control at 200 ppm (Septoria nodorum) | inhibition of growth at 60 ppm (Septoria tritici) | inhibition of growth at 60 ppm (Fusarium culmorum) | inhibition of growth at 20 ppm (Pythium ultimum)

C#Cc1cnc2cc(F)c(OC(SC)C(=O)NC(C)(C)C#CC)cc2c1 (stereo not drawn) [Example 107]
≥ 60%: pest or weed control at 200 ppm (Phytophthora infestans) | pest or weed control at 200 ppm (Plasmopara viticola) | pest or weed control at 200 ppm [1] | pest or weed control at 200 ppm [2] | pest or weed control at 200 ppm (Septoria nodorum) | inhibition of growth at 60 ppm (Septoria tritici) | inhibition of growth at 60 ppm (Fusarium culmorum)

C#Cc1cnc2c(C)cc(OC(CC)C(=O)NC(C)(C)CO)cc2c1 (stereo not drawn) [Example 111]
≥ 60%: pest or weed control at 200 ppm (Phytophthora infestans) | pest or weed control at 200 ppm (Plasmopara viticola) | pest or weed control at 200 ppm [1] | pest or weed control at 200 ppm (Septoria nodorum) | inhibition of growth at 60 ppm (Septoria tritici) | inhibition of growth at 60 ppm (Fusarium culmorum) | inhibition of growth at 20 ppm (Pythium ultimum)

C#Cc1cnc2ccc(OC(OC)C(=O)NC(C)(C)C#C)cc2c1 (stereo not drawn) [Example 124]
≥ 60%: pest or weed control at 200 ppm (Phytophthora infestans) | pest or weed control at 200 ppm (Plasmopara viticola) | pest or weed control at 200 ppm [1] | pest or weed control at 200 ppm (Septoria nodorum) | inhibition of growth at 60 ppm (Septoria tritici) | inhibition of growth at 60 ppm (Fusarium culmorum) | inhibition of growth at 20 ppm (Pythium ultimum)

C#CCOCC(C)(C)NC(=O)C(OC)Oc1ccc2ncc(C#C)cc2c1 (stereo not drawn) [Example 127]
≥ 60%: pest or weed control at 200 ppm (Phytophthora infestans) | pest or weed control at 200 ppm (Plasmopara viticola) | pest or weed control at 200 ppm [1] | pest or weed control at 200 ppm [2] | pest or weed control at 200 ppm (Septoria nodorum) | inhibition of growth at 60 ppm (Septoria tritici) | inhibition of growth at 60 ppm (Fusarium culmorum) | inhibition of growth at 20 ppm (Pythium ultimum)

CSC(Oc1ccc2ncc(C#CCCl)cc2c1)C(=O)NC(C)(C)C (stereo not drawn) [Example 143]
≥ 60%: pest or weed control at 200 ppm [2] | pest or weed control at 200 ppm (Septoria nodorum) | inhibition of growth at 60 ppm (Septoria tritici) | inhibition of growth at 60 ppm (Fusarium culmorum) | inhibition of growth at 20 ppm (Pythium ultimum)

C#Cc1cnc2ccc(OC(SC)C(=O)NC(C)(C#C)C#C)cc2c1 (stereo not drawn) [Example 159]
≥ 60%: pest or weed control at 200 ppm (Phytophthora infestans) | pest or weed control at 200 ppm (Plasmopara viticola) | pest or weed control at 200 ppm [1] | pest or weed control at 200 ppm [2] | pest or weed control at 200 ppm (Septoria nodorum) | inhibition of growth at 60 ppm (Septoria tritici) | inhibition of growth at 60 ppm (Fusarium culmorum) | inhibition of growth at 20 ppm (Pythium ultimum)

C#Cc1cnc2cc(F)c(OC(SC)C(=O)NC(C)C)cc2c1 (stereo not drawn) [Example 181]
≥ 60%: pest or weed control at 200 ppm (Phytophthora infestans) | pest or weed control at 200 ppm (Plasmopara viticola) | pest or weed control at 200 ppm [1] | pest or weed control at 200 ppm [2] | pest or weed control at 200 ppm (Septoria nodorum) | inhibition of growth at 60 ppm (Septoria tritici) | inhibition of growth at 60 ppm (Fusarium culmorum) | inhibition of growth at 20 ppm (Pythium ultimum)

C#CCC(C)(C)NC(=O)C(Oc1cc2cc(C#C)cnc2cc1F)SC (stereo not drawn) [Example 187]
≥ 60%: pest or weed control at 200 ppm (Phytophthora infestans) | pest or weed control at 200 ppm (Plasmopara viticola) | pest or weed control at 200 ppm [1] | pest or weed control at 200 ppm [2] | pest or weed control at 200 ppm (Septoria nodorum) | inhibition of growth at 60 ppm (Septoria tritici) | inhibition of growth at 60 ppm (Fusarium culmorum) | inhibition of growth at 20 ppm (Pythium ultimum)

C#Cc1cnc2cc(F)c(OC(SC)C(=O)NC(C)(C#C)CC)cc2c1 (stereo not drawn) [Example 188]
≥ 60%: pest or weed control at 200 ppm (Phytophthora infestans) | pest or weed control at 200 ppm (Plasmopara viticola) | pest or weed control at 200 ppm [1] | pest or weed control at 200 ppm [2] | pest or weed control at 200 ppm (Septoria nodorum) | inhibition of growth at 60 ppm (Septoria tritici) | inhibition of growth at 60 ppm (Fusarium culmorum) | inhibition of growth at 20 ppm (Pythium ultimum)

C#Cc1cnc2cc(F)c(OC(SC)C(=O)NC(C)(C)C#CCCOC)cc2c1 (stereo not drawn) [Example 189]
≥ 60%: pest or weed control at 200 ppm (Phytophthora infestans) | pest or weed control at 200 ppm (Plasmopara viticola) | pest or weed control at 200 ppm [1] | pest or weed control at 200 ppm [2] | pest or weed control at 200 ppm (Septoria nodorum) | inhibition of growth at 60 ppm (Septoria tritici) | inhibition of growth at 60 ppm (Fusarium culmorum) | inhibition of growth at 20 ppm (Pythium ultimum)

C#Cc1cnc2cc(F)c(OC(SC)C(=O)NC(C)(C)C#CCOCC)cc2c1 (stereo not drawn) [Example 191]
≥ 60%: pest or weed control at 200 ppm (Phytophthora infestans) | pest or weed control at 200 ppm (Plasmopara viticola) | pest or weed control at 200 ppm [1] | pest or weed control at 200 ppm [2] | pest or weed control at 200 ppm (Septoria nodorum) | inhibition of growth at 60 ppm (Septoria tritici) | inhibition of growth at 60 ppm (Fusarium culmorum) | inhibition of growth at 20 ppm (Pythium ultimum)

C#Cc1cnc2ccc(OC(SC)C(=O)NCC#N)cc2c1 (stereo not drawn) [Example 196]
≥ 60%: pest or weed control at 200 ppm (Phytophthora infestans) | pest or weed control at 200 ppm (Plasmopara viticola) | pest or weed control at 200 ppm [1] | pest or weed control at 200 ppm (Septoria nodorum) | inhibition of growth at 60 ppm (Septoria tritici) | inhibition of growth at 60 ppm (Fusarium culmorum) | inhibition of growth at 20 ppm (Pythium ultimum)

C#Cc1cnc2c(F)cc(OC(SC)C(=O)NC(C)(C)C)cc2c1 (stereo not drawn) [Example 201]
≥ 60%: pest or weed control at 200 ppm (Phytophthora infestans) | pest or weed control at 200 ppm (Plasmopara viticola) | pest or weed control at 200 ppm [1] | pest or weed control at 200 ppm (Septoria nodorum) | inhibition of growth at 60 ppm (Septoria tritici) | inhibition of growth at 60 ppm (Fusarium culmorum) | inhibition of growth at 20 ppm (Pythium ultimum)

C#Cc1cnc2ccc(OC(SC)C(=O)NC(C#C)(CC)CC)cc2c1 (stereo not drawn) [Example 207]
≥ 60%: pest or weed control at 200 ppm (Phytophthora infestans) | pest or weed control at 200 ppm (Plasmopara viticola) | pest or weed control at 200 ppm [1] | pest or weed control at 200 ppm [2] | inhibition of growth at 60 ppm (Fusarium culmorum) | inhibition of growth at 20 ppm (Pythium ultimum)

C#Cc1cnc2cc(F)c(OC(SC)C(=O)NC(C)(C=O)COC)cc2c1 (stereo not drawn) [Example 210]
≥ 60%: pest or weed control at 200 ppm (Plasmopara viticola) | pest or weed control at 200 ppm [1] | pest or weed control at 200 ppm [2] | pest or weed control at 200 ppm (Septoria nodorum) | inhibition of growth at 60 ppm (Septoria tritici) | inhibition of growth at 60 ppm (Fusarium culmorum) | inhibition of growth at 20 ppm (Pythium ultimum)

— patent publication US8415272B2, “Quinoline derivatives and their use as fungicides” (Syngenta Crop Protection LLC, priority 2008, dated 2013)
